# In patent EP1087973B1, “IMIDAZOTRIAZOLOPYRIMIDINES USED AS A DRUG HAVING AN ADENOSINE ANTAGONIST ACTIVITY” (Boehringer Ingelheim Pharma KG, priority 1998, dated 1999):
# pKi: −log10 of the molar value.
# Biological target: T1, human A3-adenosine receptor (Homo sapiens, UniProt P0DMS8)
# T1 sequence (P0DMS8 1-318): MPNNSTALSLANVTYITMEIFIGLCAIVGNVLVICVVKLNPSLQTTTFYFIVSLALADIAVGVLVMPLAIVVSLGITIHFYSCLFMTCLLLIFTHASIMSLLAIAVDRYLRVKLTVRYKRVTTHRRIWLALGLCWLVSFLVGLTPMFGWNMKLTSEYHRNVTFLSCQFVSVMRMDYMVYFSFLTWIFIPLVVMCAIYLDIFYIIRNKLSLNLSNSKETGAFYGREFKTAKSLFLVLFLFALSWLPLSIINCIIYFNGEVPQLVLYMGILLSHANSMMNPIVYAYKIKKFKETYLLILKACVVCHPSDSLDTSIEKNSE
# Assay: A3 receptor binding, determined in analogy to Salvatore et al.
# Details: KiA3 (human) Rezeptorbindungswerte, Tabelle 3
# Description: Tabelle 3 enthält KiA3 (human) Rezeptorbindungswerte.
row,SMILES,pKi
1,"CCCc1nc2c([nH]1)c(=O)n(CCC)c1nc(C3CCCC3)nn21 [Beispiel 2, 2-Cyclopentyl-4,7-di-n-propyl-imidazo[4.5-e]-s-triazolo[1.5-a]pyrimidin-5-on]",8.25
2,"CCn1c(=O)c2[nH]c(C)nc2n2nc(CCc3ccccc3)nc12 [Beispiel 10, 4-Ethyl-7-methyl-2-(2-phenylethyl)-imi-dazo[4.5-e]-s-triazolo[1.5-a]pyrimidin-5-on]",8.14
3,"CCCn1c(=O)c2[nH]c(C)nc2n2nc(-c3ccco3)nc12 [Beispiel 36, 2-(2-Furanyl)-7-methyl-4-n-propyl-imi-dazo[4.5-e]-s-triazolo[1.5-a]pyrimidin-5-on]",8.66

# More lines, now with the values ahead:
row,pKi,SMILES
1,9.05,"CCCn1c(=O)c2[nH]c(C)nc2n2nc(Cc3ccccc3)nc12 [Beispiel 8, 2-Benzyl-7-methyl-4-n-propyl-imidazo[4.5-e]-s-triazolo[1.5-a]pyrimidin-5-on]"
2,8.08,"CCCc1nc2c([nH]1)c(=O)n(CCC)c1nc(-c3ccco3)nn21 [Beispiel 37, 2-(2-Furanyl)-4,7-di-n-propyl-imidazo[4.5-e]-s-triazolo[1.5-a]pyrimidin-5-on]"

# Biological target: T2, human A1 adenosine Receptor (Homo sapiens, UniProt P30542)
# T2 sequence (P30542 1-326): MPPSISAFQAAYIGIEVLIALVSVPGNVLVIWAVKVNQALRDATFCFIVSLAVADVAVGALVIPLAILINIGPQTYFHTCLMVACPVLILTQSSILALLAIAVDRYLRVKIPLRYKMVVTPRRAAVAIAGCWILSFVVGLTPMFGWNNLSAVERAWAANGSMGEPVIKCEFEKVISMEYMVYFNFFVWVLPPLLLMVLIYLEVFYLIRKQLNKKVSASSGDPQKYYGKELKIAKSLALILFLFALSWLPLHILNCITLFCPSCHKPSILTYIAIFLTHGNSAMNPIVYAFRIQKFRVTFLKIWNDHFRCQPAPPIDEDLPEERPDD
# Assay: A1 receptor binding, determined in analogy to Ensinger et al.
# Details: KiA1 (human) Rezeptorbindungswerte, Tabelle 2; read-out: KjA1
# Description: Die nachfolgende Tabelle enthält KiA1 (human) Rezeptorbindungswerte.
row,SMILES,pKi
1,"CCCc1nc2c([nH]1)c(=O)n(CC)c1nc(CCc3ccccc3)nn21 [Beispiel 11, 4-Ethyl-2-(2-phenylethyl)-7-n-propyl-imi-dazo[4.5-e]-s-triazolo[1.5-a]pyrimidin-5-on]",8.09
2,"CCn1c(=O)c2[nH]c(C3CCCC3)nc2n2nc(Cn3cccc3)nc12 [Beispiel 35, 7-Cyclopentyl-4-ethyl-2-(N-pyrrolylmethyl)-imidazo[4.5-e]-s-triazolo[1.5-a]pyrimidin-5-on]",8.59
3,"CCn1c(=O)c2[nH]c(C(C)(C)C)nc2n2nc(Cc3ccc(OC)cc3)nc12 [Beispiel 15, 7-t-Butyl-4-ethyl-2-(4-methoxybenzyl)-imi-dazo[4.5-e]-s-triazolo[1.5-a]pyrimidin-5-on]",8.68
4,"CCn1c(=O)c2[nH]c(C(C)(C)C)nc2n2nc(Cc3ccc(O)cc3)nc12 [Beispiel 12, 7-t-Butyl-4-ethyl-2-(4-hydroxybenzyl)-imi-dazo[4.5-e]-s-triazolo[1.5-a]pyrimidin-5-on]",8.22
5,"CCn1c(=O)c2[nH]c(C3CCCC3)nc2n2nc(COc3ccccc3)nc12 [Beispiel 29, 7-Cyclopentyl-4-ethyl-2-phenyloxymethyl-imidazo[4.5-e]-s-triazolo[1.5-a]pyrimidin-5-on]",8.44
